Data: BindingDB's records for doi:10.1021/acsmedchemlett.0c00444 (Virginia Commonwealth University, 2020)

Assay: Inhibition of HIV1 3B reverse transcriptase infected in human GHOST CXCR4 cells assessed as reduction in viral replication incubated for 60 to 90 mins in presence of DTT and TTP by liquid scintillation counter

Row | EC50 | SMILES
1 | 22 nM | CC1(C)CN2C(CS/C(=N\C3CCCCC3)NC3CCCCC3)=CSC2=N1 [(6,6-dimethyl-5,6-dihydroimidazo[2,1-b][1,3]thiazol-3-yl)methyl N,N'-dicyclohexylimidothiocarbamate]
2 | 144000 nM | CNC(=O)COCC(=O)NCCCCNC(=O)COCC(=O)NC[C@H]1CC[C@H](/N=C(\NC2CCCCC2)SCC2=CSC3=NC(C)(C)CN23)CC1

Row | SMILES | EC50
3 | CC1(C)CN2C(CS/C(N)=N\[C@H]3CC[C@H](CNC(=O)COCC(=O)NCCCCNC(=O)COCC(=O)N[C@@H]4CC[C@@]5(O)[C@H]6Cc7ccc(O)c8c7[C@@]5(CCN6CC5CC5)[C@H]4O8)CC3)=CSC2=N1 | 960 nM
